Measured values from ChEMBL document CHEMBL1139133, “A spectroscopic and molecular modeling study of sinomenine binding to transferrin” (Bioorg Med Chem Lett, 2007).

Species: Homo sapiens
Experiment: Binding affinity to human serum transferrin

COC1=C[C@@H]2[C@@H]3Cc4ccc(OC)c(O)c4[C@]2(CCN3C)CC1=O
Ka: 0.68 10^3/M
